Each molecule was assayed on PAF-induced primary aggregation (assay: PAF-induced primary aggregation in human platelet-rich plasma). Settings: indomethacin-treated PRP, test compound incubated two minutes at 37° C. before sub-optimal dose of PAF, read-out: IC50, inhibition of PAF-induced primary aggregation in human platelet-rich plasma.
Assay type: cell-based
Procedure: PAF-Induced Primary Aggregation in Human Platelet-Rich Plasma
Human venous blood was collected from healthy male donors, who had denied any medication during the previous 14 days. Nine volumes of blood were mixed with one volume of 3.24% trisodium citrate. The citrated blood was centrifuged at 160 g for ten minutes at 22° C. to obtain platelet rich plasma (PRP). The platelets were then counted on a Coulter counter, and the platelet count was adjusted to 200,000 per μl with plasma. The PRP was then treated with indomethacin dissolved in dimethylsulfoxide (10 μg indomethacin per ml PRP). A stock solution of PAF (C16 or C18 β-acetyl-γ-O-alkyl-L-α-phosphatidylcholine; 1 mg/ml) was prepared as a solution in chloroform-methanol (9:1 v/v). A 10 μl portion of the stock solution was evaporated to dryness under nitrogen and dissolved in 0.15M sodium chloride-0.15M Tris.HCl (90:10 v/v) buffer containing 0.25% bovine albumin. Small volumes of the PAF solution (5-15 μl) were added to 0.5 ml samples of indomethacin-treated PRP and the aggregation trace was recorded using an aggregometer. A dose reponse curve was obtained and a sub-optimal dose of PAF was determined for use in inhibition studies.
Indomethacin-treated PRP (0.5 ml) was incubated with a test compound dissolved in buffer (ca. pH 5) or dimethylsulfoxide for two minutes at 37° C. prior to addition of the sub-optimal dose of PAF. The subsequent aggregation trace was recorded and the present inhibition of PAF primary aggregation was determined by comparison with a control PAF-induced aggregation trace. (Due to variability in PAF-induced aggregation within a given PRP sample, a control PAF-induced aggregation was determined every two or three samples.) An inhibition dose-response curve was determined for each test compound and the IC50 value calculated. Table I lists IC50 's for illustrative examples of the compounds of this invention.

Point of comparison: CN(C(=O)c1ccc(Cn2cnc3cnccc32)cc1)C1CCCCC1 [Example 5, N-Cyclohexyl-N-methyl-4-(1H-imidazo[4,5-c]pyridin-1-yl-methyl)benzamide], IC50 5 µM. Against it:
- CCOC(=O)c1ccc(Cn2cnc3ccncc32)cc1 [1(A), Ethyl 4-(3H-imidazo[4,5-c]pyridin-3-ylmethyl)benzoate] — 27-fold higher, 136 µM
- CCOC(=O)c1ccc(Cn2cnc3cnccc32)cc1 [1(B), Ethyl 4-(1H-imidazo[4,5-c]pyridin-1-ylmethyl)benzoate] — 9.2-fold higher, 46 µM
- CCOC(=O)c1cccc(Cn2cnc3ccncc32)c1 [2(A), Ethyl 3-(3H-imidazo[4,5-c]pyridin-3-ylmethyl)benzoate] — 33-fold higher, 165 µM
- CCOC(=O)c1cccc(Cn2cnc3cnccc32)c1 [2(B), Ethyl 3-(1H-imidazo[4,5-c]pyridin-1-ylmethyl)benzoate] — 16-fold higher, 80 µM
- CCOC(=O)CCCn1cnc2ccncc21 [6(A), Ethyl 4-(3H-imidazo[4,5-c]pyridin-3-yl)butanoate] — 28-fold higher, 140 µM
- CCOC(=O)CCCCn1cnc2ccncc21 [7(A), Ethyl 5-(3H-imidazo[4,5-c]pyridin-3-yl)pentanoate] — 100-fold higher, 500 µM
- CCOC(=O)CCCCn1cnc2cnccc21 [7(B), Ethyl 5-(1H-imidazo[4,5-c]pyridin-1-yl)pentanoate] — 37-fold higher, 185 µM
- CCOC(=O)CCCCCn1cnc2ccncc21 [8(A), Ethyl 6-(3H-imidazo[4,5-c]pyridin-3-yl)hexanoate] — 20-fold higher, 102 µM
- CCOC(=O)CCCCCn1cnc2cnccc21 [8(B), Ethyl 6-(1H-imidazo[4,5-c]pyridin-1-yl)hexanoate] — 4.1-fold higher, 20.5 µM
- CCOC(=O)CCCCCCn1cnc2ccncc21 [9(A), Ethyl 7-(3H-imidazo[4,5-c]pyridin-3-yl)heptanoate] — 9.6-fold higher, 48 µM
- CCOC(=O)CCCCCCn1cnc2cnccc21 [9(B), Ethyl 7-(1H-imidazo[4,5-c]pyridin-1-yl)heptanoate] — 4-fold higher, 20 µM
- CCOC(=O)C(C)(C)CCCCn1cnc2ccncc21 [10(A), Ethyl 2,2-dimethyl-6-(3H-imidazo[4,5-c]pyridin-3-yl)hexanoate] — 8.7-fold higher, 43.5 µM
- CCOC(=O)C(C)(C)CCCCn1cnc2cnccc21 [10(B), Ethyl 2,2-dimethyl-6-(1H-imidazo[4,5-c]pyridin-1-yl)hexanoate] — 3-fold higher, 15 µM
- CN(C(=O)CCCCCCn1cnc2ccncc21)C1CCCCC1 [11(A), N-Cyclohexyl-N-Methyl-7-(3H-imidazo[4,5-c]pyridin-3-yl)heptanamide] — 100-fold higher, 500 µM
- c1cc2ncn(CCCCc3nnnn3C3CCCCC3)c2cn1 [12(A), 3-[4-(1-Cyclohexyl-1H-tetrazol-5-yl)butyl]-3H-imidazo[4,5-c]pyridine] — 11-fold higher, 56 µM
- c1cc2c(cn1)ncn2CCCCc1nnnn1C1CCCCC1 [12(B), 1-[4-(1-Cyclohexyl-1H-tetrazol-5-yl)butyl]-1H-imidazo[4,5-c]pyridine] — 1.6-fold higher, 8 µM
- CCOC(=O)c1ccc(Cn2cnc3cccnc32)cc1 [14(A), Ethyl 4-(3H-imidazo[4,5-b]pyridin-3-ylmethyl)benzoate] — 12-fold higher, 58 µM
- CCOC(=O)c1ccc(Cn2cnc3ncccc32)cc1 [14(B), Ethyl 4-(1H-imidazo[4,5-b]pyridin-1-ylmethyl)benzoate] — 5.8-fold higher, 29 µM
- c1cnc2c(c1)ncn2CCCCc1nnnn1C1CCCCC1 [16(A), 3-[4-(1-Cyclohexyl-1H-tetrazol-5-yl)butyl]-3H-imidazo[4,5-b]pyridine] — 24-fold higher, 118 µM
- c1cnc2ncn(CCCCc3nnnn3C3CCCCC3)c2c1 [16(B), 1-[4-(1-Cyclohexyl-1H-tetrazol-5-yl)butyl]-1H-imidazo[4,5-b]pyridine] — 22-fold higher, 112 µM
- O=C(c1ccc(Cn2cnc3cnccc32)cc1)N1CCOCC1 [Example 3, [4-(1H-imidazo[4,5-c]pyridin-1-ylmethyl)phenyl](4-morpholinyl)methanone] — 9.9-fold higher, 49.5 µM
- O=C(c1ccc(Cn2cnc3ccncc32)cc1)N1CCOCC1 [Example 4, [4-(3H-imidazo[4,5-c]pyridin-3-ylmethyl)phenyl](4-morpholinyl)methanone] — 43-fold higher, 215 µM
- c1cc2c(cn1)ncn2CCCCCc1nnnn1C1CCCCC1 [Example 13, 1-[5-(1-Cyclohexyl-1H-tetrazol-5-yl)pentyl]-1H-imidazo[4,5-c]pyridine] — 6.6-fold higher, 33 µM
- O=C(c1ccc(Cn2cnc3ncccc32)cc1)N1CCOCC1 [Example 15, [4-(1H-Imidazo[4,5-b]pyridin-1-ylmethyl)phenyl](4-morpholinyl)methanone] — 17-fold higher, 87 µM

— US4804658A, “Imidazopyridine derivatives and pharmaceutical compositions” (G. D. Searle & Co., priority 1986, dated 1989)
